Measurements: article PMC6539678 (International Journal of Molecular Sciences, 2019)
Starred links: 1 amine or outer side, 2 acyl side, 3 side chain; linkers in the order of their positions; H or OH if unused. Non-standard residues stand in square brackets, D forms with d. Residues, ends and D or L forms follow the SMILES beside them. Groups on a side chain read outwards from the residue. *: point of attachment. PEG24 = NCCOCCOCCOCCOCCOCCOCCOCCOCCOCCOCCOCCOCCOCCOCCOCCOCCOCCOCCOCCOCCOCCOCCOCCOCCC(=O)O; X1 = O=C([C@H](Cc1ccc(-n2nnc3c2-c2ccccc2N([*:3])Cc2ccccc2-3)cc1)N[*:1])[*:2]; Pteroyl = Nc1nc2ncc(CNc3ccc(C(=O)*)cc3)nc2c(=O)[nH]1; Biotin = O=C1N[C@H]2[C@H](CS[C@H]2CCCCC(=O)*)N1; γGlu = O=C(O)[C@H](CCC(=O)[*:2])N[*:1]; βAla = NCCC(=O)O

Target: T1, folate receptor alpha (FRα) (Homo sapiens, UniProt P15328)
T1 construct: made in house
Assay: Biolayer interferometry (BLI) binding of folate and folate-peptide conjugates to FRα
Conditions: for kon: pH 7.4, read-out: ka (association rate constant); for koff: pH 7.4, read-out: kd (dissociation rate constant)
Experimental: All steps performed for purification and refolding of FRα were carried out according to our previous report. However, some different reagents were used. […] The inclusion bodies were solubilized and purified with 8 M urea instead of 6 M guanidine HCl.
The measurement procedure has been reported previously. […] To eliminate errors from non-specific binding of the analyte (FRα) on the SA biosensor chips, reference data with the same concentrations of analyte were also measured.
The obtained binding data were analyzed using a 1:1 local analysis mode applied with association and dissociation step corrections by the BLItz Pro1.2 software (ForteBio). The reference measurements were subtracted during data analysis to determine ka, kd and KD.

[1] = BLI (BLItz), 25 °C, 10 mM PBS pH 7.4, 0.5% BSA, 0.01% Tween 20, ligand immobilized via biotin on streptavidin sensor, 1:1 local analysis, 'Folate' = folate-PEG8-biotin control

T1 sequence (P15328 25-257): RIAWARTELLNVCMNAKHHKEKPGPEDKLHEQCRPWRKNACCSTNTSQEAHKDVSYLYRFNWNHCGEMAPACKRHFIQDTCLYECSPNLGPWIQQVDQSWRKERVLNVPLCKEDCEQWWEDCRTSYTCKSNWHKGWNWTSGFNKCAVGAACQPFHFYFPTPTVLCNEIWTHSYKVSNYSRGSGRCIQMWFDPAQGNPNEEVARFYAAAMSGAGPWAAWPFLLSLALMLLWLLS

C[C@H](NC(=O)[C@H](CCCCN)NC(=O)[C@H](Cc1ccc(-n2nnc3c2-c2ccccc2N(C(=O)CCNC(=O)CC[C@H](NC(=O)c2ccc(NCc4cnc5nc(N)[nH]c(=O)c5n4)cc2)C(=O)O)Cc2ccccc2-3)cc1)NC(=O)[C@H](CCC(=O)O)NC(=O)[C@H](CO)NC(=O)[C@H](CC(=O)O)NC(=O)CCOCCOCCOCCOCCOCCOCCOCCOCCOCCOCCOCCOCCOCCOCCOCCOCCOCCOCCOCCOCCOCCOCCOCCOCCNC(=O)CCCC[C@@H]1SC[C@@H]2NC(=O)N[C@@H]21)C(=O)N[C@@H](Cc1ccc(O)cc1)C(=O)O [DSEZKAY] ({Biotin-PEG24}-DSE[X1]([βAla-γGlu-Pteroyl])KAY-OH; C-terminus assumed)
fold faster association constant (DSEZKAY relative to SEZKA): 12 fold | fold faster dissociation constant (DSEZKAY relative to SEZKA): 3 fold | fold lower KD (DSEZKAY relative to SEZKA): 4 fold | kon: 1.1e+06 M⁻¹ s⁻¹ | koff: 0.000265 s⁻¹

Nc1nc(=O)c2nc(CNc3ccc(C(=O)N[C@@H](CCC(=O)O)C(=O)O)cc3)cnc2[nH]1 [Folate, reference compound]
ka (association rate constant) [1]: 6.74e+06 M⁻¹ s⁻¹ | kd (dissociation rate constant) [1]: 0.00769 s⁻¹

CC[C@H](C)[C@H](NC(=O)[C@H](Cc1ccc(-n2nnc3c2-c2ccccc2N(C(=O)CCNC(=O)CC[C@H](NC(=O)c2ccc(NCc4cnc5nc(N)[nH]c(=O)c5n4)cc2)C(=O)O)Cc2ccccc2-3)cc1)NC(=O)[C@H](Cc1ccccc1)NC(=O)CNC(=O)CCOCCOCCOCCOCCOCCOCCOCCOCCOCCOCCOCCOCCOCCOCCOCCOCCOCCOCCOCCOCCOCCOCCOCCOCCNC(=O)CCCC[C@@H]1SC[C@@H]2NC(=O)N[C@@H]21)C(=O)N[C@@H](CCC(N)=O)C(=O)O [GFZIQ] ({Biotin-PEG24}-GF[X1]([βAla-γGlu-Pteroyl])IQ-OH; C-terminus assumed)
kon: 411000 M⁻¹ s⁻¹ | koff: 7.53e-05 s⁻¹

C[C@H](NC(=O)[C@H](CCCCN)NC(=O)[C@H](Cc1ccc(-n2nnc3c2-c2ccccc2N(C(=O)CCNC(=O)CC[C@H](NC(=O)c2ccc(NCc4cnc5nc(N)[nH]c(=O)c5n4)cc2)C(=O)O)Cc2ccccc2-3)cc1)NC(=O)[C@H](CCC(=O)O)NC(=O)[C@H](CO)NC(=O)CCOCCOCCOCCOCCOCCOCCOCCOCCOCCOCCOCCOCCOCCOCCOCCOCCOCCOCCOCCOCCOCCOCCOCCOCCNC(=O)CCCC[C@@H]1SC[C@@H]2NC(=O)N[C@@H]21)C(=O)O [SEZKA] ({Biotin-PEG24}-SE[X1]([βAla-γGlu-Pteroyl])KA-OH; C-terminus assumed)
kon: 89100 M⁻¹ s⁻¹ | koff: 8.01e-05 s⁻¹
